Tests used:
[1] = molecular target: T1, Receptor-type tyrosine-protein kinase FLT3 (Homo sapiens, UniProt P36888); assay: Inhibition of wild type FLT3 (unknown origin) phosphorylation expressed in HEK293T cells preincubated for 1 hr followed by FLT3 ligand addition for 5 mins by Western blot analysis; assay type: cell-based, HEK-293T
T1 sequence (P36888 whole entry): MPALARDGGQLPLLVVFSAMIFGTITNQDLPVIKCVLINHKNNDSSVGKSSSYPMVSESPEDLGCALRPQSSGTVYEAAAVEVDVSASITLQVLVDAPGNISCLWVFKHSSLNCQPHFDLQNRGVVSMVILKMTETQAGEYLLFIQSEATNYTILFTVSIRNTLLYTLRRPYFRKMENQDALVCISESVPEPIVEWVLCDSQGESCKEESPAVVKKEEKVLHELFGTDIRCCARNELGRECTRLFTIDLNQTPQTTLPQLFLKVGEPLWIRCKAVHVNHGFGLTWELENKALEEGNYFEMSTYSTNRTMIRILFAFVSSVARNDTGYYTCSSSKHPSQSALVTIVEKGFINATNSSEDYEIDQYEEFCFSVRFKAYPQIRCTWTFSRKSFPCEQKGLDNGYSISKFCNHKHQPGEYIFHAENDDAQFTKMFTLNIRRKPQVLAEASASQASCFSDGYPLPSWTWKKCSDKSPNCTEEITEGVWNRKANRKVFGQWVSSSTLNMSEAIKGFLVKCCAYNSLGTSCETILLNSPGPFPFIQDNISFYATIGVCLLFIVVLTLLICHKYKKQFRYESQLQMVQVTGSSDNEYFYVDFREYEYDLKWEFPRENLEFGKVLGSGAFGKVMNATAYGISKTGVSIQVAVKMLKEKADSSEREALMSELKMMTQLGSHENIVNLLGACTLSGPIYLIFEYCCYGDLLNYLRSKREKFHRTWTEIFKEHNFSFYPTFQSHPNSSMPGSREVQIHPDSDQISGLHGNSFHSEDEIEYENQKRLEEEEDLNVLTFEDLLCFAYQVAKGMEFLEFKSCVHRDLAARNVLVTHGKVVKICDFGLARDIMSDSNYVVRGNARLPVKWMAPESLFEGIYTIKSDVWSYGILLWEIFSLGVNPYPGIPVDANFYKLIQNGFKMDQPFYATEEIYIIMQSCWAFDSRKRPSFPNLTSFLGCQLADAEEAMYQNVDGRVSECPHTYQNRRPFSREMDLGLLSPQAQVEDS

[2] = molecular target: Non-receptor tyrosine-protein kinase TYK2 (Homo sapiens) (UniProt P29597); assay: Inhibition of human TYK2 at 0.1 uM relative to control
[3] = molecular target: Aurora kinase A (Homo sapiens) (UniProt O14965); assay: Inhibition of human AURKA at 0.1 uM relative to control
[4] = molecular target: Macrophage-stimulating protein receptor (Homo sapiens) (UniProt Q04912); assay: Inhibition of human RON at 0.1 uM relative to control
[5] = molecular target: Aurora kinase B (Homo sapiens) (UniProt Q96GD4); assay: Inhibition of human AURKB at 0.1 uM relative to control
[6] = molecular target: Tyrosine-protein kinase BTK (Homo sapiens) (UniProt Q06187); assay: Inhibition of human BTK at 0.1 uM relative to control
[7] = molecular target: Mitogen-activated protein kinase 8 (Homo sapiens) (UniProt P45983); assay: Inhibition of human MAPK8 at 0.1 uM relative to control
[8] = AUC (0 to infinity) in Sprague-Dawley rat at 10 mg/kg, po; assay type: ADME, organism-based; parameters: dose 10 mg/kg, time infinity, route oral; settings: in vivo
[9] = molecular target: Tyrosine-protein kinase Yes (Homo sapiens) (UniProt P07947); assay: Inhibition of human YES1 at 0.1 uM relative to control
[10] = molecular target: Glycogen synthase kinase-3 alpha (Homo sapiens) (UniProt P49840); assay: Inhibition of human GSK3A at 0.1 uM relative to control
[11] = molecular target: Serine/threonine-protein kinase mTOR (Homo sapiens) (UniProt P42345); assay: Inhibition of human mTOR at 0.1 uM relative to control
[12] = test system: Receptor-type tyrosine-protein kinase FLT3 (Homo sapiens), P36888 [F691L]
[13] = test system: Receptor-type tyrosine-protein kinase FLT3 (Homo sapiens), P36888 [UNDEFINED MUTATION]; settings: MOLM-13
Description: Inhibition of FLT3 ITD heterozygous mutant in human MOLM-13 cells assessed as cell growth inhibition after 72 hrs by MTS assay

[14] = molecular target: Serine/threonine-protein kinase Sgk3 (Homo sapiens) (UniProt Q96BR1); assay: Inhibition of human SGKL at 0.1 uM relative to control
[15] = test system: Receptor-type tyrosine-protein kinase FLT3 (Homo sapiens), P36888 [D835Y]; assay: Inhibition of human FLT3 D835Y mutant at 0.1 uM relative to control
[16] = Half life in ICR mouse at 10 mg/kg, po; assay type: ADME, organism-based; settings: in vivo
Mus musculus = assay: Toxicity in nude mouse allografted with mouse 32D cells expressing FLT3 ITD D835Y mutant at 10 mg/kg/day, po administered 5 days on/2 days off schedule for 4 weeks measured daily during compound dosing; assay type: organism-based; settings: in vivo
[17] = molecular target: Hepatocyte growth factor receptor (Homo sapiens) (UniProt P08581); assay: Inhibition of human MET at 0.1 uM relative to control
[18] = molecular target: Tyrosine-protein kinase Lyn (Homo sapiens) (UniProt P07948); assay: Inhibition of human LYNA at 0.1 uM relative to control
[19] = Cmax in ICR mouse at 10 mg/kg, po; assay type: ADME, organism-based; parameters: dose 10 mg/kg, route oral; settings: in vivo
[20] = test system: Receptor-type tyrosine-protein kinase FLT3 (Homo sapiens), P36888 [UNDEFINED MUTATION]; settings: MV4-11
Description: Inhibition of FLT3 ITD homozygous mutant in human MV4-11 cells assessed as cell growth inhibition after 72 hrs by MTS assay

[21] = molecular target: Ribosomal protein S6 kinase alpha-5 (Homo sapiens) (UniProt O75582); assay: Inhibition of human MSK1 at 0.1 uM relative to control
[22] = molecular target: Vascular endothelial growth factor receptor 3 (Homo sapiens) (UniProt P35916); assay: Inhibition of human FLT4 at 0.1 uM relative to control
[23] = molecular target: Dual specificity protein kinase CLK2 (Homo sapiens) (UniProt P49760); assay: Inhibition of human CLK2 at 0.1 uM relative to control
[24] = test system: Platelet-derived growth factor receptor alpha (Homo sapiens), P16234 [T674I]; assay: Inhibition of human PDGFRA T674I mutant at 0.1 uM relative to control
[25] = Plasma clearance in Sprague-Dawley rat at 2 mg/kg, iv; assay type: ADME, organism-based
[26] = molecular target: Tyrosine-protein kinase Fgr (Homo sapiens) (UniProt P09769); assay: Inhibition of human FGR at 0.1 uM relative to control
[27] = molecular target: Receptor-type tyrosine-protein kinase FLT3 (Homo sapiens) (UniProt P36888); settings: RS4:11 cell
Description: Inhibition of wild type homozygous FLT3 in human RS4:11 cells assessed as cell growth inhibition after 72 hrs by MTS assay

[28] = molecular target: Platelet-derived growth factor receptor beta (Homo sapiens) (UniProt P09619); assay: Inhibition of human PDGFRbeta at 0.1 uM relative to control
Chain of Platelet-derived growth factor receptor beta (Homo sapiens) (P09619 whole entry): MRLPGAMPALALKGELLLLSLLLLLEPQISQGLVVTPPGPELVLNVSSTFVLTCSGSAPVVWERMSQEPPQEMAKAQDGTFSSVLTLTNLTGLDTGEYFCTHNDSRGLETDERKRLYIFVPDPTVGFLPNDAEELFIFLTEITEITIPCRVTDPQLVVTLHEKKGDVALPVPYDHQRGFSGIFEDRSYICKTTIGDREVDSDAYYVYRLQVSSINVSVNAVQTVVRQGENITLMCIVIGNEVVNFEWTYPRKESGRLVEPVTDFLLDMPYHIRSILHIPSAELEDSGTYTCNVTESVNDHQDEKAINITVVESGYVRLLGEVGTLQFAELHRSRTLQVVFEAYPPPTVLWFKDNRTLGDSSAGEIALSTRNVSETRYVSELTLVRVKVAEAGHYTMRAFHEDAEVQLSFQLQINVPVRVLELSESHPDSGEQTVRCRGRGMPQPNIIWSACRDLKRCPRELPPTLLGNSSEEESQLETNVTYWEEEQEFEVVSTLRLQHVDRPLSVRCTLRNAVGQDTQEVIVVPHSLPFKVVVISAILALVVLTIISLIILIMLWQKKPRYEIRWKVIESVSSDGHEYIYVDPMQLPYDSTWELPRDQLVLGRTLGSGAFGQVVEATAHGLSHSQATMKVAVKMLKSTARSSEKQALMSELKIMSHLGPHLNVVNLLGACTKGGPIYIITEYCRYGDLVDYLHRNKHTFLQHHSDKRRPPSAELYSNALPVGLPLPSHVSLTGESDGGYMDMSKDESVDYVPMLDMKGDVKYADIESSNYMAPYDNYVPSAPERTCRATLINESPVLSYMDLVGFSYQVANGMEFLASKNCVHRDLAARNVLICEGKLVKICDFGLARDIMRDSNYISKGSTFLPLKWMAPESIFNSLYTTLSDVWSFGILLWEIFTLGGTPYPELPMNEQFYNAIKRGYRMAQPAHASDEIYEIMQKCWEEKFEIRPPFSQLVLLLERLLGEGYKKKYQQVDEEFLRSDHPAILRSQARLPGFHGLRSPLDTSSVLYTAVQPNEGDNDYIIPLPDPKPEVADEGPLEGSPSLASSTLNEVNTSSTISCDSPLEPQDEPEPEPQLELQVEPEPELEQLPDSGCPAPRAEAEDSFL

Chain of Mitogen-activated protein kinase 8 (Homo sapiens) (P45983 whole entry): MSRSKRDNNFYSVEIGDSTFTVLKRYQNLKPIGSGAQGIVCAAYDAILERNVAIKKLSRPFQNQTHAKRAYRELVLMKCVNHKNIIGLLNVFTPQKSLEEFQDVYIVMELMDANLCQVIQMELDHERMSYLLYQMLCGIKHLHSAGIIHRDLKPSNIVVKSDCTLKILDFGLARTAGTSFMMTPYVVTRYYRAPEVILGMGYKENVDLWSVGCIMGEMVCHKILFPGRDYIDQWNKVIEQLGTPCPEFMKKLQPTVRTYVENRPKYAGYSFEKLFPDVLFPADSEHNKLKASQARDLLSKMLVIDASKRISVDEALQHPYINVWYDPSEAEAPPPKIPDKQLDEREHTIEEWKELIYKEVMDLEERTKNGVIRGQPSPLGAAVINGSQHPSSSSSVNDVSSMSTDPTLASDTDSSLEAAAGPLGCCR
Chain of Aurora kinase B (Homo sapiens) (Q96GD4 whole entry): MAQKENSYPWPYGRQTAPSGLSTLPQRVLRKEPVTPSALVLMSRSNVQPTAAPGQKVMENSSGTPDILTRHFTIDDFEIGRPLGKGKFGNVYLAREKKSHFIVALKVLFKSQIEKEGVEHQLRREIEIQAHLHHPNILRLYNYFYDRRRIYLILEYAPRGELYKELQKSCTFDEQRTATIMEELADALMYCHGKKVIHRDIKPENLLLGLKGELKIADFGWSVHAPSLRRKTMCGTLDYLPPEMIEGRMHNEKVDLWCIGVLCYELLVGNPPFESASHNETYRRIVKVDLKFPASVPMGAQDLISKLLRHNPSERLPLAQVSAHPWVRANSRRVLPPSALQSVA
Chain of Macrophage-stimulating protein receptor (Homo sapiens) (Q04912 25-304 limits assumed): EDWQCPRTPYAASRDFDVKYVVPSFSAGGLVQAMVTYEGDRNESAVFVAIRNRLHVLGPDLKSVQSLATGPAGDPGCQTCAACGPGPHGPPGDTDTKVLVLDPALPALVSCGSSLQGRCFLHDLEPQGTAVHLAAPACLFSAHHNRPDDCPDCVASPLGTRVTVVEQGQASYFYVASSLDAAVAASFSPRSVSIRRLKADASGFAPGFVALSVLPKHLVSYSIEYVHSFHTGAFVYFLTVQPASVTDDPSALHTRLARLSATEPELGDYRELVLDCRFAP
Chain of Macrophage-stimulating protein receptor (Homo sapiens) (Q04912 310-1400 limits assumed): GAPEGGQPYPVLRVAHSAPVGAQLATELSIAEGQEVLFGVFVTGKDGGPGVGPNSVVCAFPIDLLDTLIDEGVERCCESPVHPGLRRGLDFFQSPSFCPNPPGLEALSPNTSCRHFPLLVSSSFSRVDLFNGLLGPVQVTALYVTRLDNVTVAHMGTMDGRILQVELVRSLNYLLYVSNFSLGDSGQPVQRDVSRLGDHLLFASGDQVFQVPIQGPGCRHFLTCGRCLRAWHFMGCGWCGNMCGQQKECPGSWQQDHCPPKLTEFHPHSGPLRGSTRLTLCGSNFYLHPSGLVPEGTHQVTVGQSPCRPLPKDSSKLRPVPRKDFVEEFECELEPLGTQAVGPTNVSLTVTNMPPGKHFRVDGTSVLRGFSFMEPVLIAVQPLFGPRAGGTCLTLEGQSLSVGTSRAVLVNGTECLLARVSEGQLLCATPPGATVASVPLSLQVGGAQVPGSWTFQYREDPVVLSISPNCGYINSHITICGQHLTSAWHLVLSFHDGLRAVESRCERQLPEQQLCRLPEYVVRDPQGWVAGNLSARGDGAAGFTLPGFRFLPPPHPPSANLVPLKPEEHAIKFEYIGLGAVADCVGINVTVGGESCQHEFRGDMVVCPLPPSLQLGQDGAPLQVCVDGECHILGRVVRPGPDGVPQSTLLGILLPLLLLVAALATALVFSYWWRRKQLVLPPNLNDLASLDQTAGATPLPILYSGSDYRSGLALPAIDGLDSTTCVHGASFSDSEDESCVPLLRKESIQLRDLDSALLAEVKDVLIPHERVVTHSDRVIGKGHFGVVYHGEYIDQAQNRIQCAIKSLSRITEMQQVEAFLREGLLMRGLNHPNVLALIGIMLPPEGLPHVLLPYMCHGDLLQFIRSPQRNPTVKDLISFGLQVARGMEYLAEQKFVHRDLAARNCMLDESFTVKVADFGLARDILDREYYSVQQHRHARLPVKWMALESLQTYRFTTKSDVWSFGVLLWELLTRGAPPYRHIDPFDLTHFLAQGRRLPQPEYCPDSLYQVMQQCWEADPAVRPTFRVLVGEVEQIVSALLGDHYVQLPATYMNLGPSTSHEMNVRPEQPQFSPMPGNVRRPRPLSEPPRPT
Chain of Tyrosine-protein kinase Yes (Homo sapiens) (P07947 2-543 limits assumed): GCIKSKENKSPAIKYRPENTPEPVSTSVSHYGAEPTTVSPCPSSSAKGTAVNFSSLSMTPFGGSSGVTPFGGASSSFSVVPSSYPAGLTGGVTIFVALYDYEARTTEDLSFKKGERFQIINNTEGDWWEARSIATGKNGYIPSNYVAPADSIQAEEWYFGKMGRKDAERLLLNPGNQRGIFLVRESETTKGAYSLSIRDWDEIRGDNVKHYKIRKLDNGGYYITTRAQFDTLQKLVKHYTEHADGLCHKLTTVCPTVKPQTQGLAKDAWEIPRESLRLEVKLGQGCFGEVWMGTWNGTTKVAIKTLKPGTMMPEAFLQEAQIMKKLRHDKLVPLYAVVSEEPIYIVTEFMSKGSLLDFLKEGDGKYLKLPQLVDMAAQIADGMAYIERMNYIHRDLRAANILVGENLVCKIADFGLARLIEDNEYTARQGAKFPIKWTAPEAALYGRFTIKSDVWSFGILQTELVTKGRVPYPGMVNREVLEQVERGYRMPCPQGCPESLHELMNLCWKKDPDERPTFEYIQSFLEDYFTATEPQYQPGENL
Chain of Platelet-derived growth factor receptor alpha (Homo sapiens), P16234 [T674I] (P16234 whole entry T674I): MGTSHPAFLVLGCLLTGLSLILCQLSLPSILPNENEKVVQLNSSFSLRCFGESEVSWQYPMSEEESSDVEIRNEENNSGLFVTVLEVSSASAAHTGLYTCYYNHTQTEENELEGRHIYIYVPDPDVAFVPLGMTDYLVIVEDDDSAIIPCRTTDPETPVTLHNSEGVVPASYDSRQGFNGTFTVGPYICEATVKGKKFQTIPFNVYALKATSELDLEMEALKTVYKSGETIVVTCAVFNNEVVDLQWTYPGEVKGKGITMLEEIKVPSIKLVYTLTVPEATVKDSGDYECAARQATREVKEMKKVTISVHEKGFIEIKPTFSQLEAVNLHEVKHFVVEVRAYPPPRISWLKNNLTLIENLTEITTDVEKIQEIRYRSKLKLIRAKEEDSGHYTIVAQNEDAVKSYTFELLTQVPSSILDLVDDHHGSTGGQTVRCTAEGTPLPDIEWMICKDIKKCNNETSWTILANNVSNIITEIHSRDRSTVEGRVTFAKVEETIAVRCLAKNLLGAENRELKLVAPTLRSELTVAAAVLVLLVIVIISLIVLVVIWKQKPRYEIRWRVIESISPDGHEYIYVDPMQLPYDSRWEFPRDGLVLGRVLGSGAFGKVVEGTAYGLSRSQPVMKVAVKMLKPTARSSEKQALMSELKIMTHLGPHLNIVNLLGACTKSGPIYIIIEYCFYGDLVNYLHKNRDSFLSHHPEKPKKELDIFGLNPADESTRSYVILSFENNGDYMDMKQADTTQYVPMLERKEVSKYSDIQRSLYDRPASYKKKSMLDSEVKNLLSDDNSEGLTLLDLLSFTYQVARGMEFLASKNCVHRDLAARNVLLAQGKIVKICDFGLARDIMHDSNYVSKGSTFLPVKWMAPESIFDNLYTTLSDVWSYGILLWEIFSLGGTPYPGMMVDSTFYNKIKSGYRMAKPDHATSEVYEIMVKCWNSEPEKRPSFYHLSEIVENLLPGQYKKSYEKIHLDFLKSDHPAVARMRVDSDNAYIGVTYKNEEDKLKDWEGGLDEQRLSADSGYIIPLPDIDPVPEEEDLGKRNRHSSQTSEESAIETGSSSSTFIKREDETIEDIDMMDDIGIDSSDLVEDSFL

**Q.** With `CCc1cc(NC(=O)Nc2ccc(-c3cnc(Nc4cc(N5CCN(CC)CC5)nc(C)n4)s3)cc2)no1` as the compound, how does the IC50 [1] read?
**A.** 10 nM

**Q.** What about the inhibition [2] of the same compound?
**A.** 21%

**Q.** What about the inhibition [3] of the same compound?
**A.** 96%

**Q.** And the inhibition [4]?
**A.** -3%

**Q.** What about the inhibition [5] of the same compound?
**A.** 85%

**Q.** What about the inhibition [6] of the same compound?
**A.** 46%

**Q.** And the inhibition [7]?
**A.** 15%

**Q.** What about the AUC(0-inf) [8] of the same compound?
**A.** 1080 ng·h/mL

**Q.** What about the inhibition [9] of the same compound?
**A.** 72%

**Q.** And the inhibition [10]?
**A.** 2%

**Q.** What about the inhibition [11] of the same compound?
**A.** -7%

**Q.** What about the GI50 [12] of the same compound?
**A.** 70 nM

**Q.** What about the GI50 [13] of the same compound?
**A.** 2 nM

**Q.** And the inhibition [14]?
**A.** -8%

**Q.** And the inhibition [15]?
**A.** 87%

**Q.** And the half-life [16]?
**A.** 1.8 h

**Q.** And the Activity (Mus musculus)?
**A.** Non-toxic

**Q.** What about the inhibition [17] of the same compound?
**A.** 14%

**Q.** What about the inhibition [18] of the same compound?
**A.** 96%

**Q.** What about the Cmax [19] of the same compound?
**A.** 168 ng/mL

**Q.** And the GI50 [20]?
**A.** 1 nM

**Q.** What about the inhibition [21] of the same compound?
**A.** 0%

**Q.** What about the inhibition [22] of the same compound?
**A.** 80%

**Q.** What about the inhibition [23] of the same compound?
**A.** -7%

**Q.** What about the inhibition [24] of the same compound?
**A.** 46%

**Q.** And the clearance [25]?
**A.** 31.6 mL/min/kg

**Q.** What about the inhibition [26] of the same compound?
**A.** 89%

**Q.** And the GI50 [27]?
**A.** 110 nM

**Q.** And the inhibition [28]?
**A.** 91%

From ChEMBL document CHEMBL3593229, “Identification of a potent 5-phenyl-thiazol-2-ylamine-based inhibitor of FLT3 with activity against drug resistance-conferring point mutations” (Eur J Med Chem, 2015)
